Assay results from US20240327421A1 (Marquette University, priority 2017, published 2024).
“And” between values parts separate entries of the source, which are not always exact repeats. Identical values can stand only once.

What was measured:
ERα [1] = target: T1, ERα (Homo sapiens, UniProt P03372); test: Cell-based luciferase reporter assay, full length ERα, agonist mode; conditions: 22 h
T1 construct: employs a full length and native ER (comprised of an ER LBD and an ER DBD)
T1 sequence (P03372 1-595): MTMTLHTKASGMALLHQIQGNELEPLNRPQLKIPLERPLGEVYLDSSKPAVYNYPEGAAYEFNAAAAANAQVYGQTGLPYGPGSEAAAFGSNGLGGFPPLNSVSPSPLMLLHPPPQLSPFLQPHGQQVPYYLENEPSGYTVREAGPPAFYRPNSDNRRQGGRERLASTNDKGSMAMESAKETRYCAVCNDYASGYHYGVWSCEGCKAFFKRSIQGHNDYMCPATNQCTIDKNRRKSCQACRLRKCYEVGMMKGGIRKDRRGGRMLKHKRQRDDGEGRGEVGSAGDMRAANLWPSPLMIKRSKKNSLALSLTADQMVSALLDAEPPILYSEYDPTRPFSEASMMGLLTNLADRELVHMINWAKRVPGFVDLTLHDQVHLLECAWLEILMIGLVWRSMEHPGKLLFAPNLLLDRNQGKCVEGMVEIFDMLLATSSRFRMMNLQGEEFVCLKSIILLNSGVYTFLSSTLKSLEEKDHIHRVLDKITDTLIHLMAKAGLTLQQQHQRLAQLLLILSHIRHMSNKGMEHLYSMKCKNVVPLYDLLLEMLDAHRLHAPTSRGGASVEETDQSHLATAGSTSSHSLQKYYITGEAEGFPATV

ERα [2] = target: T1, ERα; test: Cell-based luciferase reporter assay, full length ERα, antagonist mode
[3] = target: T2, human ER Beta ligand-binding domain (LBD) (Homo sapiens, UniProt Q92731); test: TR-FRET competitive binding assay, ERβ LBD; conditions: displacement of fluorescent tracer from ERβ LBD
T2 construct: purchased Thermo Fisher Scientific

ovariectomized mice = test: Peripheral tissue pathology (H&E of liver, kidney, heart); format: in vivo; conditions: 24 h after single IP injection; 0.5 or 5 mg/kg ISP358-2, 0.05 mg/kg DPN
Protocol: Assessment of Potential Peripheral Pathology. To assess possible toxicity of ISP358-2 treatment to peripheral organs, ovariectomized mice received a single intraperitoneal injection of vehicle or ISP358-2, and liver, kidney, and heart tissues were collected 24 hours later. […] Tissues were fixed in 10% formalin buffered solution for 24 hours. Twenty specimens were processed and analyzed. Each specimen contained three pieces of tissue. The tissues from each animal was transferred to a labeled cassette and processed on an automated tissue processor following standard procedures. The tissues were then embedded in paraffin wax. No specific orientation of the tissue was performed. Four-micron sections were cut from each paraffin block and placed onto a slide. The slides were then stained using hematoxylin and cosin (H&E) on an automated stainer (FIGS. 13A-13L). The slides were then examined by a pathologist (ACM) who is board certified in anatomical pathology by the American Board of Pathology. All specimens contained three tissue samples corresponding to liver, kidney, and heart. In some instances, portions of adjacent tissues were also present. […] For heart, the myocytes and coronary vessels were examined, (2) evidence of inflammation was evaluated including hepatitis, glomerulonephritis, interstitial nephritis, and myocarditis, and (3) evidence of ischemic changes was examined. […]

[4] = full length ERα, read-out: ERα agon. IC50
[5] = inhibition of estradiol-induced transcription, read-out: ERα antagon. IC50

T2 sequence (Q92731 264-498 limits assumed): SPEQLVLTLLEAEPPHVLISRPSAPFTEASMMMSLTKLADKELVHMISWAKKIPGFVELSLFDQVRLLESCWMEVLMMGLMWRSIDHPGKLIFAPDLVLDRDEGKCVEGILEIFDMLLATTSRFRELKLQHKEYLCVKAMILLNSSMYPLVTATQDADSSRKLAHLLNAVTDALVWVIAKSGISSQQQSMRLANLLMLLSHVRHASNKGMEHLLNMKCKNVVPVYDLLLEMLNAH

Work on `CC1CCC(c2ccc(O)cc2)CC1` (mixture of isomers) [Compound 8, 4-(4-Methylcyclohexyl) phenol] yielded an IC50 (ERα [1]; [4]) of over 10 µM and an IC50 (ERα [2]; [5]) of over 10 µM.
`C=C1CCC(c2ccc(O)c(/C=N/O)c2)CC1` [Compound 10, 2-Hydroxy-5-(4-methylenecyclohexyl) benzaldehyde oxime] was tested, and the IC50 [3] was 0.225 ± 0.094 µM.
For `OCC1CC=C(c2ccc(O)cc2)CC1` (racemic) [Compound 18, 4′-(Hydroxymethyl)-2′,3′,4′,5′-tetrahydro-[1,1′-biphenyl]-4-ol], the IC50 (ERα [1]; [4]) was over 20 µM and the IC50 (ERα [2]; [5]) was over 10 µM.
In the case of `OCC=C1CCC(c2ccc(O)cc2)CC1` (stereo not drawn) [Compound 24, 4-(4′-Hydroxyphenyl) (2-hydroxyethylidene) cyclohexane], the IC50 [3] is reported as 0.676 µM and the IC50 ([3]; listed as (±)-24) is reported as 0.68 ± 0.11 µM.
Compound `C[C@]1(O)CC[C@@H](c2ccc(O)cc2)CC1` [Compound 3, 4-(4-Hydroxy-4-methylcyclohexyl) phenol] has an IC50 [3] of 6.29 µM.
`C=C1CCC(c2ccc(O)c(C=O)c2)CC1` [Compound 9, 2-Hydroxy-5-(4-methylenecyclohexyl) benzaldehyde] was tested, and the IC50 [3] was 1 µM.
For `N#CC(Cc1ccc(O)cc1)c1ccc(O)cc1` (stereo not drawn) [DPN, 2,3-bis(4-hydroxyphenyl)-propionitrile, reference compound], the “histological abnormalities / peripheral toxicity in liver, kidney, heart” value (ovariectomized mice) was “Histological abnormalities were not detected”.
`OCC1CCC(c2ccc(O)cc2)CC1` (stereo not drawn) [15:16 (3:2), 4-(4-(Hydroxymethyl)cyclohexyl) phenol] showed an IC50 (ERα [1]; ERα agon. IC50, full length ERα) of over 100 µM and an IC50 (ERα [2]) of over 10 µM.
For `Oc1ccc([C@H]2CC[C@H](O)CC2)cc1` [Compound 2, trans-4-(4-Hydroxycyclohexyl) phenol], the IC50 [3] was 7.25 µM and 7.52 µM.
Work on `O=C1CCC(c2ccc(O)cc2)CC1` [Compound 1, 4-(4-hydroxyphenyl) cyclohexanone] yielded an IC50 [3] of 19 µM.
Compound `OCCC1CCC(c2ccc(O)cc2)CC1` (stereo not drawn) [Compound 25, 4-[4-(2-Hydroxyethyl)cyclohexyl] phenol] has an IC50 (ERα [1]; [4]) of over 50 µM and an IC50 (ERα [2]; [5]) of over 10 µM.
Compound `Oc1ccc([C@]23CC[C@H](CC2)CO3)cc1` [Compound 17, 1-(4-Hydroxyphenyl)-2-oxabicyclo [2.2.2] octane] has an IC50 [3] of 0.25 ± 0.056 µM.
`ON=C1CCC(c2ccc(O)cc2)CC1` (stereo not drawn) [Compound 4, 4-(4-Hydroxyphenyl) cyclohexanone oxime] gave an IC50 [3] of 1.57 µM.
Work on `C=C1CCC(c2ccc(O)cc2)CC1` [Compound 7, 4-(4-Hydroxyphenyl) methylenecyclohexane] yielded an IC50 (ERα [1]; [4]) of over 10 µM and an IC50 (ERα [2]; [5]) of over 10 µM.
`OCC1(O)CCC(c2ccc(O)cc2)CC1` (single isomer, unassigned) [Compound 12, 4-(4-Hydroxy-4-(hydroxymethyl)cyclohexyl) phenol] gave an IC50 [3] of 2.7 µM.
